Data: PubChem BioAssay AID330 (DTP/NCI, 2004)
“And” between values parts separate entries of the source, which are not always exact repeats. Equal entries are not always repeated. Toxic doses and inconclusive results are not listed.

Test system: P388 leukemia ip, CD2F1 mice, survival T/C
Experiment: NCI In Vivo Anticancer Drug Screen. Data for tumor model P388 Leukemia (intraperitoneal) in CD2F1 (CDF1) mice
Settings: endpoint: median survival time, higher = longer survival
In short: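 Mice carrying the transplanted tumor received test compound or vehicle. Survival was recorded in each group, and the value is the treated-group measurement divided by that of the vehicle-treated control group.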

[1] = dose: 50.0 mg/kg/injection, schedule: Q01DX005 (ip), vehicle: saline with Tween-80
[2] = dose: 100.0 mg/kg/injection, schedule: Q01DX005 (ip), vehicle: saline with Tween-80
[3] = dose: 200.0 mg/kg/injection, schedule: Q01DX005 (ip), vehicle: saline with Tween-80
[4] = dose: 50.0 mg/kg/injection, schedule: Q01DX009 (ip), vehicle: saline
[5] = dose: 100.0 mg/kg/injection, schedule: Q04DX003 (ip), vehicle: saline
[6] = dose: 200.0 mg/kg/injection, schedule: Q04DX003 (ip), vehicle: saline
[7] = dose: 400.0 mg/kg/injection, schedule: Q04DX003 (ip), vehicle: saline
[8] = dose: 50.0 mg/kg/injection, schedule: Q01DX005 (ip), vehicle: Klucel (hydroxypropylcellulose) (HPC)
[9] = dose: 100.0 mg/kg/injection, schedule: Q01DX005 (ip), vehicle: Klucel (hydroxypropylcellulose) (HPC)
[10] = dose: 200.0 mg/kg/injection, schedule: Q01DX005 (ip), vehicle: Klucel (hydroxypropylcellulose) (HPC)
[11] = dose: 12.5 mg/kg/injection, schedule: Q01DX005 (ip), vehicle: saline
[12] = dose: 50.0 mg/kg/injection, schedule: Q01DX009 (ip), vehicle: Klucel (hydroxypropylcellulose) (HPC)
[13] = dose: 100.0 mg/kg/injection, schedule: Q01DX009 (ip), vehicle: Klucel (hydroxypropylcellulose) (HPC)

SMILES: NC(=O)N/N=C1/CCC(OCc2ccccc2)CC1CC(=O)O (stereo not given)
- T/C [1]: 102 % of control
- T/C [2]: 105 % of control
- T/C [3]: 96 % of control

SMILES: NC(Cc1ccccc1Cl)c1nn[nH]n1 (stereo not given)
- T/C (dose: 25.0 mg/kg/injection, schedule: Q04DX002 (ip), vehicle: saline with Tween-80): 99 % of control and 93 % of control
- T/C (dose: 50.0 mg/kg/injection, schedule: Q04DX002 (ip), vehicle: saline with Tween-80): 107 % of control and 95 % of control and 96 % of control
- T/C (dose: 100.0 mg/kg/injection, schedule: Q04DX002 (ip), vehicle: saline with Tween-80): 100 % of control
- T/C (dose: 200.0 mg/kg/injection, schedule: Q04DX002 (ip), vehicle: saline with Tween-80): 98 % of control and 100 % of control

SMILES: N#CC[n+]1ccccc1
- T/C (dose: 12.5 mg/kg/injection, schedule: Q01DX009 (ip), vehicle: saline): 100 % of control
- T/C (dose: 25.0 mg/kg/injection, schedule: Q01DX009 (ip), vehicle: saline): 100 % of control
- T/C [4]: 101 % of control

SMILES: Cc1ccc2c(c1)-c1nc(N)ncc1C(O)O2 (stereo not given)
- T/C [5]: 110 % of control
- T/C [6]: 96 % of control
- T/C [7]: 100 % of control

SMILES: N#C/C(=N\NC(=O)c1cccs1)c1ccccc1Cl
- T/C [1]: 93 % of control
- T/C [2]: 103 % of control
- T/C [3]: 106 % of control

SMILES: COc1cccc2c1C(=O)c1c(O)c3c(c(O)c1C2=O)C[C@@](O)(C(=O)CN1CCOCC1)C[C@@H]3OC1CC(N)C(O)C(C)O1 (stereo not given in full)
- T/C (dose: 1.3 mg/kg/injection, schedule: Q01DX001 (ip), vehicle: water): 116 % of control
- T/C (dose: 1.56 mg/kg/injection, schedule: Q01DX009 (ip), vehicle: water): 103 % of control
- T/C (dose: 1.8 mg/kg/injection, schedule: Q01DX001 (ip), vehicle: water): 114 % of control
- T/C (dose: 2.4 mg/kg/injection, schedule: Q01DX001 (ip), vehicle: water): 116 % of control
- T/C (dose: 3.13 mg/kg/injection, schedule: Q01DX009 (ip), vehicle: water): 115 % of control
- T/C (dose: 3.2 mg/kg/injection, schedule: Q01DX001 (ip), vehicle: water): 119 % of control
- T/C (dose: 4.2 mg/kg/injection, schedule: Q01DX001 (ip), vehicle: water): 119 % of control
- T/C (dose: 5.56 mg/kg/injection, schedule: Q01DX009 (ip), vehicle: water): 156 % of control
- T/C (dose: 8.33 mg/kg/injection, schedule: Q01DX009 (ip), vehicle: water): 162 % of control
- T/C (dose: 10.0 mg/kg/injection, schedule: Q01DX001 (ip), vehicle: water): 119 % of control
- T/C (dose: 18.8 mg/kg/injection, schedule: Q01DX009 (ip), vehicle: water): 153 % of control
- T/C (dose: 50.0 mg/kg/injection, schedule: Q01DX001 (ip), vehicle: water): 162 % of control
- T/C (dose: 100.0 mg/kg/injection, schedule: Q01DX001 (ip), vehicle: water): 174 % of control

SMILES: C[n+]1c(/C=C/c2ccc([N+](=O)[O-])cc2)ccc2ccccc21
- T/C (dose: 3.3 mg/kg/injection, schedule: Q01DX009 (ip), vehicle: saline sonified): 100 % of control
- T/C (dose: 6.5 mg/kg/injection, schedule: Q01DX009 (ip), vehicle: saline sonified): 111 % of control
- T/C (dose: 12.5 mg/kg/injection, schedule: Q01DX009 (ip), vehicle: saline sonified): 111 % of control

SMILES: O=C(CCSCCCl)Nc1c([N+](=O)[O-])cc([N+](=O)[O-])cc1S(=O)(=O)O
- T/C (dose: 3.13 mg/kg/injection, schedule: Q04DX003 (ip), vehicle: DMSO): 104 % of control
- T/C (dose: 6.25 mg/kg/injection, schedule: Q04DX003 (ip), vehicle: DMSO): 99 % of control
- T/C (dose: 12.5 mg/kg/injection, schedule: Q04DX003 (ip), vehicle: DMSO): 111 % of control
- T/C (dose: 25.0 mg/kg/injection, schedule: Q04DX003 (ip), vehicle: DMSO): 124 % of control
- T/C (dose: 25.0 mg/kg/injection, schedule: Q04DX003 (ip), vehicle: olive oil, sesame oil, peanut oil): 118 % of control
- T/C (dose: 50.0 mg/kg/injection, schedule: Q04DX003 (ip), vehicle: DMSO): 118 % of control
- T/C (dose: 75.0 mg/kg/injection, schedule: Q04DX003 (ip), vehicle: DMSO): 118 % of control

SMILES: CCCCNC(=O)C1C2C=CC(O2)C1C(=O)O (stereo not given)
- T/C [8]: 100 % of control
- T/C [9]: 93 % of control
- T/C [10]: 89 % of control

SMILES: CC1(C)CC(=O)C(C)(CCC#N)C(=O)C1
- T/C [5]: 102 % of control
- T/C [6]: 99 % of control
- T/C [7]: 99 % of control

SMILES: CC(C)(C)c1ccc(C(c2ccc(C(C)(C)C)cc2)C(Cl)(Cl)Cl)cc1
- T/C (dose: 100.0 mg/kg/injection, schedule: Q04DX003 (ip), vehicle: saline with Tween-80): 104 % of control
- T/C (dose: 200.0 mg/kg/injection, schedule: Q04DX003 (ip), vehicle: saline with Tween-80): 100 % of control
- T/C (dose: 400.0 mg/kg/injection, schedule: Q04DX003 (ip), vehicle: saline with Tween-80): 100 % of control

SMILES: N#CCCN(N)S(=O)(=O)c1ccc(Br)cc1
- T/C [8]: 102 % of control
- T/C [9]: 96 % of control
- T/C [10]: 115 % of control

SMILES: CC1=C[P+](c2ccccc2)(c2ccccc2)C=C(C)O1
- T/C (dose: 3.12 mg/kg/injection, schedule: Q01DX005 (ip), vehicle: saline): 96 % of control
- T/C (dose: 6.25 mg/kg/injection, schedule: Q01DX005 (ip), vehicle: saline): 105 % of control
- T/C [11]: 105 % of control

SMILES: O=C1C(Cc2ccccc2)C(=O)N2c3ccccc3C=CC2N1c1ccccc1 (stereo not given)
- T/C (dose: 60.0 mg/kg/injection, schedule: Q01DX005 (ip), vehicle: Klucel (hydroxypropylcellulose) (HPC)): 98 % of control
- T/C (dose: 120.0 mg/kg/injection, schedule: Q01DX005 (ip), vehicle: Klucel (hydroxypropylcellulose) (HPC)): 97 % of control
- T/C (dose: 240.0 mg/kg/injection, schedule: Q01DX005 (ip), vehicle: Klucel (hydroxypropylcellulose) (HPC)): 89 % of control

SMILES: CN(C)/N=C/c1c[nH]c2ccccc12
- T/C (dose: 6.25 mg/kg/injection, schedule: Q01DX009 (ip), vehicle: Klucel (hydroxypropylcellulose) (HPC)): 105 % of control
- T/C (dose: 12.5 mg/kg/injection, schedule: Q01DX009 (ip), vehicle: Klucel (hydroxypropylcellulose) (HPC)): 103 % of control
- T/C (dose: 25.0 mg/kg/injection, schedule: Q01DX009 (ip), vehicle: Klucel (hydroxypropylcellulose) (HPC)): 100 % of control
- T/C [12]: 118 % of control
- T/C [13]: 111 % of control

SMILES: CNC/C=C/CN(C)C(=S)S
- T/C [4]: 108 % of control
- T/C (dose: 100.0 mg/kg/injection, schedule: Q01DX009 (ip), vehicle: saline): 92 % of control
- T/C (dose: 200.0 mg/kg/injection, schedule: Q01DX009 (ip), vehicle: saline): 96 % of control

SMILES: COP(=O)(OC)C1(C(C)(C)C)CO1 (stereo not given)
- T/C [12]: 99 % of control
- T/C [13]: 88 % of control
- T/C (dose: 200.0 mg/kg/injection, schedule: Q01DX009 (ip), vehicle: Klucel (hydroxypropylcellulose) (HPC)): 94 % of control

SMILES: N=C(N)c1ccc(N=Nc2ccc(O)c3c2ccc[n+]3[O-])cc1
- T/C (dose: 3.13 mg/kg/injection, schedule: Q01DX005 (ip), vehicle: Klucel (hydroxypropylcellulose) (HPC)): 106 % of control
- T/C (dose: 6.25 mg/kg/injection, schedule: Q01DX005 (ip), vehicle: Klucel (hydroxypropylcellulose) (HPC)): 97 % of control
- T/C (dose: 12.5 mg/kg/injection, schedule: Q01DX005 (ip), vehicle: Klucel (hydroxypropylcellulose) (HPC)): 106 % of control
- T/C (dose: 25.0 mg/kg/injection, schedule: Q01DX005 (ip), vehicle: Klucel (hydroxypropylcellulose) (HPC)): 109 % of control and 110 % of control and 117 % of control
- T/C [8]: 117 % of control
- T/C [9]: 103 % of control and 123 % of control
- T/C [10]: 110 % of control

SMILES: CC(=O)Nc1cc2nc[nH]c2cn1
- T/C (dose: 100.0 mg/kg/injection, schedule: Q04DX002 (ip), vehicle: saline): 99 % of control
- T/C (dose: 200.0 mg/kg/injection, schedule: Q04DX002 (ip), vehicle: saline): 106 % of control
- T/C (dose: 400.0 mg/kg/injection, schedule: Q04DX002 (ip), vehicle: saline): 106 % of control

SMILES: CC1(C)CC2=NO[Se]3=C2C(=NO3)C1
- T/C (dose: 1.56 mg/kg/injection, schedule: Q01DX009 (ip), vehicle: saline with Tween-80): 104 % of control
- T/C (dose: 3.12 mg/kg/injection, schedule: Q01DX009 (ip), vehicle: saline with Tween-80): 102 % of control
- T/C (dose: 6.25 mg/kg/injection, schedule: Q01DX009 (ip), vehicle: saline with Tween-80): 104 % of control and 111 % of control
- T/C (dose: 12.5 mg/kg/injection, schedule: Q01DX009 (ip), vehicle: saline with Tween-80): 117 % of control

SMILES: CCN(CC)CC(C)(O)CNc1cc(OC)cc2cccnc12 (stereo not given)
- T/C [11]: 97 % of control
- T/C (dose: 25.0 mg/kg/injection, schedule: Q01DX005 (ip), vehicle: saline): 101 % of control
- T/C (dose: 50.0 mg/kg/injection, schedule: Q01DX005 (ip), vehicle: saline): 93 % of control and 94 % of control
